Here are results for 6 compounds from the NIST ThermoML archive (doi:10.1016/j.fluid.2007.07.013).

± gives the expanded uncertainty stated by the source.

For the series the following is noted: Liquid.

Take `CCSC` [2-thiabutane]: the “vapor or sublimation pressure” value by setting is: (247.76 K) 1 kPa; (272.96 K) 6 kPa; (293.23 K) 17 ± 12 kPa; (293.41 K) 17 ± 12 kPa; (313.33 K) 40 ± 12 kPa; (313.35 K) 40 ± 12 kPa.
As to `CS` [methanethiol], the “vapor or sublimation pressure” value reads like this: (243.19 K) 20 ± 12 kPa; (258 K) 42 ± 12 kPa; (272.98 K) 80 ± 12 kPa; (293.35 K) 170 ± 12 kPa; (298.23 K) 200 ± 12 kPa.
For the compound `CSC` [2-thiapropane], the “vapor or sublimation pressure” value runs as follows: (252.89 K) 8 ± 12 kPa; (253.06 K) 8 ± 12 kPa; (272.76 K) 22 ± 12 kPa; (278.46 K) 29 ± 12 kPa; (293.16 K) 53 ± 12 kPa; (293.43 K) 54 ± 12 kPa. Besides, the “vapor or sublimation pressure” value worked out at 112 ± 12 kPa (313.3 K) and 112 ± 12 kPa (313.43 K).
`S` [hydrogen sulfide]: the “vapor or sublimation pressure” value is, setting by setting: (273.08 K) 1033 ± 17 kPa; (298.4 K) 2024 ± 26 kPa; (323.5 K) 3564 ± 44 kPa; (348.45 K) 5812 ± 72 kPa.
Regarding `CCS` [ethanethiol], the “vapor or sublimation pressure” value (272.94 K) is 25 ± 12 kPa, the “vapor or sublimation pressure” value (293.36 K) is recorded as 59 ± 12 kPa and the “vapor or sublimation pressure” value (313.41 K) came to 121 ± 12 kPa.
As to `S=C=S` [carbon disulfide], the “vapor or sublimation pressure” value turned out to be 17 ± 12 kPa (273.08 K), 49 ± 12 kPa (298.4 K), 116 ± 12 kPa (323.5 K) and 240 ± 12 kPa (348.45 K).
